Measured values as given in patent US20220305012A1, “L[…] TREATING SLEEP ISSUES” (EISAI R&D MANAGEMENT CO., LTD., priority 2019, published 2022).

Key:
Assay type in all cases: in vivo, human
[1] = system: Subjects Having Insomnia Disorder; test: Example 2: subjective wake after sleep onset (sWASO), sleep diary; details: Zolpidem ER 6.25 mg
Excerpt: As used herein, the term “subjective wake after sleep onset”, abbreviated as “sWASO”, means the sum of estimated minutes of wake during the night after initial sleep onset until the time the subject stopped trying to sleep for the night, operationalized as the time the subject got out of bed for the day. In some embodiments, sWASO is derived from data entered in a subject's Sleep Diary. As used herein, an “improvement of sWASO” means a reduction in sWASO.
(§1) In some embodiments, sleep diaries were used to assess sleep parameters reported by subjects (i.e., subjective assessments) including subjective sleep onset latency (sSOL), subjective sleep efficiency (sSE), subjective WASO (sWASO), and subjective total sleep time (sTST). Subjects were instructed to complete the Sleep Diary developed based on the consensus Sleep Diary as described in Carney et al., “The consensus sleep diary: standardizing prospective sleep self-monitoring,” Sleep 2012; 35(2):287-302. In some embodiments, the Sleep Diary was used to assess the subject's global perception of quality of sleep on the previous night with the following question: “How would you rate the quality of your sleep last night?” Subjects rated the quality of their sleep on a scale from 1 to 9, with 1 being extremely poor and 9 being extremely good. In some embodiments, the Sleep Diary was used to assess subjective ratings of morning sleepiness with the following question: “How alert/sleepy do you feel this morning?” Subjects rated their sleepiness/alertness level on a Likert scale from 1 to 9, with 1 being extremely sleepy and 9 being extremely alert.
sWASO—subjective wake after sleep onset: sum of estimated minutes of wake during the night after initial sleep onset until the time the subject stopped trying to sleep for the night, operationalized as the time the subject got out of bed for the day.
(§2) The treatment period lasted for 31 days. Subjects were randomized in a double-blind manner and received placebo, a tablet containing 5 mg of lemborexant, a tablet containing 10 mg of lemborexant, or a tablet containing 6.25 mg of zolpidem ER.
(§3) Once home, the subject ingested study drug each night prior to bedtime and completed their sleep diary within 1 hour of waketime.

[2] = system: Subjects Having Insomnia Disorder; test: Example 2: subjective sleep onset latency (sSOL), sleep diary; details: 6.25 mg
Excerpt: As used herein, the term “subjective sleep onset latency”, abbreviated as “sSOL”, means the estimated number of minutes from the time that the subject attempted to sleep until sleep onset. In some embodiments, sSOL is derived from data entered in a subject's Sleep Diary.
as §1
sSOL—subjective sleep onset latency: estimated minutes from the time that the subject attempted to sleep until sleep onset.
as §2, §3

[3] = system: Subjects Having Insomnia Disorder; test: Example 2: treatment-emergent adverse events; details: Zolpidem ER 6.25 mg (N = 263)
Description: Between 14 and 18 days after completion of the treatment period, subjects returned to the clinic for the end of study visit. The T-BWSQ and eC-SSRS were administered and routine safety assessments were conducted.
A subject who prematurely discontinued taking study drug was to return to the clinic as soon as practicable after discontinuing study drug. If the subject discontinued due to an adverse event, the adverse event must have been followed to resolution or for 2 weeks, whichever came first. Additionally, subjects who discontinued early underwent a urine drug test.

Structure (SMILES): Cc1ccc(-c2nc3ccc(C)cn3c2CC(=O)N(C)C)cc1 [Zolpidem ER, zolpidem, reference compound]
- Subjective Wake After Sleep Onset, Change from Study Baseline, Mean (SD) ([1]; First 7 Nights of Treatment): −48.91 (51.761)
- Subjective Wake After Sleep Onset, Mean (SD) ([1]; First 7 Nights of Treatment): 124.83 (75.279)
- Subjective Wake After Sleep Onset, Model-adjusted change from baseline ([1]; First 7 Nights of Treatment): −48.09
- Subjective Wake After Sleep Onset, Change from Study Baseline, Mean (SD) ([1]; Last 7 Nights of Treatment): −63.52 (64.161)
- Subjective Wake After Sleep Onset, Mean (SD) ([1]; Last 7 Nights of Treatment): 109.63 (72.583)
- Subjective Wake After Sleep Onset, Model-adjusted change from baseline ([1]; Last 7 Nights of Treatment): −62.00
- sSOL Change from Study Baseline, Mean (SD) ([2]; First 7 Nights of Treatment): −16.23 (29.531) minutes
- sSOL Change from Study Baseline, Median ([2]; First 7 Nights of Treatment): -10.00 min
- sSOL, Mean (SD) ([2]; First 7 Nights of Treatment): 44.61 (27.566) minutes
- sSOL, Median ([2]; First 7 Nights of Treatment): 34.29 min
- sSOL Change from Study Baseline, Mean (SD) ([2]; Last 7 Nights of Treatment): −17.04 (30.683) minutes
- sSOL Change from Study Baseline, Median ([2]; Last 7 Nights of Treatment): -10.71 min
- sSOL, Mean (SD) ([2]; Last 7 Nights of Treatment): 43.64 (30.649) minutes
- sSOL, Median ([2]; Last 7 Nights of Treatment): 37.50 min
- sSOL, Mean (SD) ([2]; Study Baseline): 60.54 (36.350) minutes
- sSOL, Median ([2]; Study Baseline): 53.21 min
- Congenital anomaly/birth defect [3]: 0 n (%)
- Deaths [3]: 0 n (%)
- Life threatening [3]: 0 n (%)
- Other SAEs [3]: 4 (1.5) n (%)
- Persistent or significant disability or incapacity [3]: 0 n (%)
- Requires inpatient hospitalization or prolongation of existing hospitalization [3]: 4 (1.5) n (%)
- Serious TEAEs [3]: 4 (1.5) n (%)
- Severe TEAEs [3]: 8 (3.0) n (%)
- TEAEs [3]: 93 (35.4) n (%)
- TEAEs leading to study dose reduced [3]: 0 n (%)
- TEAEs leading to study drug dose adjustment [3]: 8 (3.0) n (%)
- TEAEs leading to study drug interrupted [3]: 2 (0.8) n (%)
- TEAEs leading to study drug withdrawal [3]: 7 (2.7) n (%)
- Treatment-related TEAEs [3]: 40 (15.2) n (%)
